Holding throughout (assay type): biochemical
One assay has as its target IGF1-receptor (Homo sapiens, UniProt P08069). Description: IGF1-Receptor Tyrosine Kinase Assay. To be noted: ATP 25 μM; IGF1-Receptor 14 nM; Caliper LabChip 3000; read-out: IGF1R IC50. Here is the method:
D. IGF1-Receptor Tyrosine Kinase Assay
The assays were performed in U-bottom 384-well plates. The final assay volume was 30 μl prepared from 15 μl additions of enzyme and substrates (fluoresceinated IGF1R substrate peptide and ATP) and test compounds in assay buffer (100 mM HEPES pH 7.4, 10 mM MnCl2, 0.015% Brij35 and 4 mM DTT). The reaction was initiated by the combination of IGF1-receptor with substrates and test compounds. The reaction was incubated at room temperature for 60 min. and terminated by adding 30 μl of 35 mM EDTA to each sample. The reaction mixture was analyzed on the Caliper LabChip 3000 by electrophoretic separation of the fluorescent substrate and phosphorylated product. Inhibition data were calculated by comparison to no enzyme control reactions for 100% inhibition and vehicle-only reactions for 0% inhibition. The final concentration of reagents in the assays is ATP, 25 μM; FL-peptide, 1.5 μM; IGF1-Receptor, 14 nM; and DMSO, 1.6%. Dose response curves were generated to determine the concentration required inhibiting 50% of kinase activity (IC50). Compounds were dissolved at 10 mM in dimethylsulfoxide (DMSO) and evaluated at eleven concentrations, each in duplicate. IC50 values were derived by non-linear regression analysis

For another assay, the target named is CDK2E (Homo sapiens, UniProt P24941). Description: CDK 2/Cyclin E Kinase Assay. As to conditions: ATP 30 μM; CDK2E 0.2 nM; Caliper LabChip 3000. As to the method: A. CDK 2/Cyclin E Kinase Assay
The assays were performed in U-bottom 384-well plates. The final assay volume was 30 μl prepared from 15 μl additions of enzyme and substrates (fluoresceinated CDK2E substrate peptide and ATP) and test compounds in assay buffer (100 mM HEPES pH 7.4, 10 mM MgCl2, 0.015% Brij35 and 4 mM DTT). The reaction was initiated by the combination of bacterially expressed, CDK2E with substrates and test compounds. The reaction was incubated at room temperature for 60 min. and terminated by adding 30 μl of 35 mM EDTA to each sample. The reaction mixture was analyzed on the Caliper LabChip 3000 by electrophoretic separation of the fluorescent substrate and phosphorylated product Inhibition data were calculated by comparison to no enzyme control reactions for 100% inhibition and vehicle-only reactions for 0% inhibition. The final concentration of reagents in the assays is ATP, 30 μM; FL-peptide, 1.5 μM; CDK2E, 0.2 nM; and DMSO, 1.6%. Dose response curves were generated to determine the concentration required inhibiting 50% of kinase activity (IC50). Compounds were dissolved at 10 mM in dimethylsulfoxide (DMSO) and evaluated at eleven concentrations, each in duplicate. IC50 values were derived by non-linear regression analysis.

The target of another assay is JAK2 (Homo sapiens, UniProt O60674). Description: JAK2 kinase assay. To be noted: ATP 30 μM; activated JAK2; Caliper LabChip 3000. As to the method:
The assays were performed in U-bottom 384-well plates. The final assay volume was 30 μl prepared from 15 μl additions of enzyme and substrates (fluoresceinated peptide FL-JAK2 substrate and ATP) and test compounds in assay buffer (100 mM HEPES pH 7.2, 10 mM MgCl2, 0.015% Brij35, 25 mM β-glycerolphosphate and 4 mM DTT). The reaction was initiated by the combination of activated JAK2 with substrates and test compounds. The reaction was incubated at room temperature for 60 min. and terminated by adding 30 μl of 35 mM EDTA to each sample. The reaction mixture was analyzed on the Caliper LabChip 3000 (Caliper, Hopkinton, Mass.) by electrophoretic separation of the fluorescent substrate and phosphorylated product. Inhibition data were calculated by comparison to no enzyme control reactions for 100% inhibition and vehicle-only reactions for 0% inhibition. The final concentration of reagents in the assays is ATP, 30 μM; FL-JAK2 peptide, 1.5 μM; […], 2.6 nM; and DMSO, 1.6%.

Chain of JAK2 (O60674 whole entry): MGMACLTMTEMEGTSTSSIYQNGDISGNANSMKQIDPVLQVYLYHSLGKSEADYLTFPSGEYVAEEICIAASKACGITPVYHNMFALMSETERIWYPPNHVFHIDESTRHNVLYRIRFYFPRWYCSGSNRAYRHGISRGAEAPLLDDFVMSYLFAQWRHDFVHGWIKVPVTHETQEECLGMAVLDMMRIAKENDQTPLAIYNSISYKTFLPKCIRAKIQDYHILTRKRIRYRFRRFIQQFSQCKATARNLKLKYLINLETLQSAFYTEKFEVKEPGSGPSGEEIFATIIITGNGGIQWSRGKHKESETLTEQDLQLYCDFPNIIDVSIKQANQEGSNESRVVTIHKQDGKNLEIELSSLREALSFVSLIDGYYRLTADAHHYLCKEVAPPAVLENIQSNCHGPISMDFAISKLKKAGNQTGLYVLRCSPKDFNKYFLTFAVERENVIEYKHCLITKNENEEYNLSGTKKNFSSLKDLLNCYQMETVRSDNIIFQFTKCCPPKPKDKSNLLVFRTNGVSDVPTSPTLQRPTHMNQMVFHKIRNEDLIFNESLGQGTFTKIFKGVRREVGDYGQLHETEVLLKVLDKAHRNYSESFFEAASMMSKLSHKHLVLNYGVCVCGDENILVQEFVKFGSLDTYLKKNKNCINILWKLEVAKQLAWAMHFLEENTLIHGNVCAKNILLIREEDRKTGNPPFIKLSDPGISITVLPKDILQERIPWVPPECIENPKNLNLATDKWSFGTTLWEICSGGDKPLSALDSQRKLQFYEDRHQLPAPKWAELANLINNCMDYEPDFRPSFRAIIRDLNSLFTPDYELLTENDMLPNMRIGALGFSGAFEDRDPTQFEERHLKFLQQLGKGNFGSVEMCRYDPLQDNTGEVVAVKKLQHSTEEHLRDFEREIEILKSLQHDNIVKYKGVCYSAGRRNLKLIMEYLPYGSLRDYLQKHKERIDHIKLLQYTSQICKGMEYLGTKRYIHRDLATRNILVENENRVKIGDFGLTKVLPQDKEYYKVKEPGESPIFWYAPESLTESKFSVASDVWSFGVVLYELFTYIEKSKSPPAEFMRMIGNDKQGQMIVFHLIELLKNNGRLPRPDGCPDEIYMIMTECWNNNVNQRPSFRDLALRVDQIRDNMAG
Chain of IGF1-receptor (P08069 31-1367): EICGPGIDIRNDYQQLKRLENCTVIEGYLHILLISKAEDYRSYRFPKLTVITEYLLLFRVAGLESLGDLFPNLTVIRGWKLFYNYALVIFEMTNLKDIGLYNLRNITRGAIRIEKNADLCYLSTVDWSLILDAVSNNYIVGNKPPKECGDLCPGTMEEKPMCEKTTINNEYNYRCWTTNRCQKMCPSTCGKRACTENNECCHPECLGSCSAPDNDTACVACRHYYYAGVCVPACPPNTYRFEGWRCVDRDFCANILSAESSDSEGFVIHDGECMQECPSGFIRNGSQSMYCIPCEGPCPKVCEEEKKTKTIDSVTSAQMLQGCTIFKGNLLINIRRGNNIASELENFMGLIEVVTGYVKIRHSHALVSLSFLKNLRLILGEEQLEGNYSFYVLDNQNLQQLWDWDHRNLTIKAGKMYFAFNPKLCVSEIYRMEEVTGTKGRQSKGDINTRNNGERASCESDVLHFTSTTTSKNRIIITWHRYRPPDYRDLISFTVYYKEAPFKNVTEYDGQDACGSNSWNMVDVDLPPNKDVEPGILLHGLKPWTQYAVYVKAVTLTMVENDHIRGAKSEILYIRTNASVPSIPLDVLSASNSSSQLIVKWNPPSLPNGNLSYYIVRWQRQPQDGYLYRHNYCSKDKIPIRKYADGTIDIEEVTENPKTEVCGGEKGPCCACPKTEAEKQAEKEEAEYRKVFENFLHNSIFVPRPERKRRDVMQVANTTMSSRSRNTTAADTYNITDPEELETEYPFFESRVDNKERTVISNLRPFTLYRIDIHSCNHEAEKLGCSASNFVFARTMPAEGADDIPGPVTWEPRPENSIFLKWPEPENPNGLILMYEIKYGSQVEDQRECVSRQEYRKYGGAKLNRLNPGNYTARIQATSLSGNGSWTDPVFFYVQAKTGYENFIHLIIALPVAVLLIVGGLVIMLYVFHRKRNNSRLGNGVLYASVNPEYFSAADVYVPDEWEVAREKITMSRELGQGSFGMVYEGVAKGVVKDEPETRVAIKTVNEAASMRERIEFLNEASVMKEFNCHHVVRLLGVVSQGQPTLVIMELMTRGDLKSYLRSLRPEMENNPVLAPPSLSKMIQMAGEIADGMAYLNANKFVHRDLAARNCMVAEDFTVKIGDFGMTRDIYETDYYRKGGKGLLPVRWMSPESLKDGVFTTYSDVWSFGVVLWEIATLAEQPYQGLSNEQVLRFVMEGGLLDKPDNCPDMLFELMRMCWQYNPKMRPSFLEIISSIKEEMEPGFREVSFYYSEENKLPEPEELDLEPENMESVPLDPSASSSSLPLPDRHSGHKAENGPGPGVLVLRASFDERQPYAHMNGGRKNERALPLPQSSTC

The term IC50 denotes the point on the concentration scale where inhibition reaches its midpoint. `O=C(C1CCNCC1)N1CCC[C@H]1c1nc(Nc2cc(C3CC3)[nH]n2)c2cccn2n1` [Example 6, (S)-(2-(4-(5-Cyclopropyl-1H-pyrazol-3-ylamino)pyrrolo[1,2-f][1,2,4]triazin-2-yl)pyrrolidin-1-yl)(piperidin-4-yl)methanone]: the IC50 worked out at 4.05 µM at IGF1-receptor, 0.615 µM at CDK2E and 10.7 µM at JAK2.
Consider `O=C(c1cc[nH]n1)N1CCC[C@H]1c1nc(Nc2cc(C3CC3)[nH]n2)c2cccn2n1` [Example 7, (S)-(2-(4-(5-Cyclopropyl-1H-pyrazol-3-ylamino)pyrrolo[1,2-f][1,2,4]triazin-2-yl)pyrrolidin-1-yl)(1H-pyrazol-3-yl)methanone], for which the half-maximal inhibitory concentration (IC50) turned out to be 0.068 µM at IGF1-receptor, 0.054 µM at CDK2E and 0.036 µM at JAK2.
The like results for `O=C(c1cnccn1)N1CCC[C@@H]1c1nc(Nc2cc(C3CC3)[nH]n2)c2cccn2n1` [Example 12, (R)-(2-(4-(5-Cyclopropyl-1H-pyrazol-3-ylamino)pyrrolo[1,2-f][1,2,4]triazin-2-yl)pyrrolidin-1-yl)(pyrazin-2-yl)methanone] were, in that order, 4.93 µM, 0.256 µM and 4.48 µM.
The like results for `O=C(c1nccs1)N1CCC[C@@H]1c1nc(Nc2cc(C3CC3)[nH]n2)c2cccn2n1` [Example 15, (R)-(2-(4-(5-Cyclopropyl-1H-pyrazol-3-ylamino)pyrrolo[1,2-f][1,2,4]triazin-2-yl)pyrrolidin-1-yl)(thiazol-2-yl)methanone] were, in that order, 2.52 µM, 0.162 µM and 0.324 µM.

The values above are taken from patent US8198438B2, “Pyrrolotriazine kinase inhibitors” (Bristol-Myers Squibb Company, priority 2007, dated 2012).
